Target: T1, γ-secretase (Homo sapiens, UniProt P49768)
T1 construct: endogenous in cells; host or cells: SKNBE2 cells carrying APP 695 wild type
Experiment: Screening for γ-secretase-modulating activity in SKNBE2 cells carrying the APP 695 wild type
Assay type: cell-based
Details: SKNBE2 cells carrying APP 695 wild type; for % printed in the EC50 column, no concentration given: concentration not given
Description: Screening of the Compounds of the Invention for γ-Secretase-Modulating Activity
Screening was carried out using SKNBE2 cells carrying the APP 695—wild type, grown in DMEM/NUT-mix F12 (HAM) provided by Gibco (cat no. 31330-38) containing 5% Serum/Fe supplemented with 1% non-essential amino acids.
Cells were grown to near confluency.
The screening was performed using the assay as described in Citron et al (1997) Nature Medicine 3: 67.

inhibition at 0.3 µM (0.3 μM) [%] | EC50 [nM] | Compound | also measured
13 | – | CC(C)CC(C(=O)O)c1cc(-c2ccc(C(F)(F)F)cc2)cc(N(C)c2cc[n+](C)cc2)c1 (stereo not drawn) [Example 16, 4-{[5-(1-Carboxy-3-methyl-butyl)-4′-trifluoromethyl-biphenyl-3-yl]-methyl-amino}-1-methyl-pyridinium] | –
65 | – | CC(C)CCC(c1cc(F)cc(F)c1)N(C)c1cc(-c2ccc(C(F)(F)F)cc2)cc(C(CC(C)C)C(=O)O)c1 (stereo not drawn) [Compound 50, 2-(5-{[1-(3,5-Difluoro-phenyl)-4-methyl-pentyl]-methyl-amino}-4′-trifluoromethyl-biphenyl-3-yl)-4-methyl-pentanoic acid] | –
7 | – | CC(C)C[C@@H](C(=O)O)c1cc(NCc2ccc(C(F)(F)F)cc2)cc(-c2ccc(C(F)(F)F)cc2)c1 [Compound 44, (R) 4-Methyl-2-[4′-trifluoromethyl-5-(4-trifluoromethyl-benzylamino)-biphenyl-3-yl]-pentanoic acid] | –
– | 220 | CC(C)CCN(Cc1ccc(C(F)(F)F)cc1)Cc1cc(-c2ccc(C(F)(F)F)cc2)cc(C(CC(C)C)C(=O)O)c1 (stereo not drawn) [Compound 56, 4-Methyl-2-(5-{[(3-methyl-butyl)-(4-trifluoromethyl-benzyl)-amino]-methyl}-4′-trifluoromethyl-biphenyl-3-yl)-pentanoic acid] | –
0 | – | CC(C)CC(C(=O)O)c1cc(-c2ccc(C(F)(F)F)cc2)cc(N2CCc3ccccc32)c1 (stereo not drawn) [Example 24, 2-[5-(2,3-Dihydro-indol-1-yl)-4′-trifluoromethyl-biphenyl-3-yl]-4-methyl-pentanoic acid] | –
– | 1130 | CC(C)CC(C(=O)O)c1cc(-c2ccc(C(F)(F)F)cc2)cc(N(C)c2ccc(Cl)cc2)c1 (single isomer, unassigned) [Example 21, (R*)2-{5-[(4-Chloro-phenyl)-methyl-amino]-4′-trifluoromethyl-biphenyl-3-yl}-4-methyl-pentanoic acid] | –
– | 640 | CC(C)CCN(Cc1ccc(OC(F)(F)F)cc1)c1cc(-c2ccc(C(F)(F)F)cc2)cc([C@@H](CC(C)C)C(=O)O)c1 [Compound 42, (R) 4-Methyl-2-{5-[(3-methyl-butyl)-(4-trifluoromethoxy-benzyl)-amino]-4′-trifluoromethyl-biphenyl-3-yl}-pentanoic acid] | –
– | 240 | CC(C)CCN(Cc1cc(F)cc(F)c1)Cc1cc(-c2ccc(C(F)(F)F)cc2)cc(C(CC(C)C)C(=O)O)c1 (stereo not drawn) [Compound 59, 2-(5-{[(3,5-Difluoro-benzyl)-(3-methyl-butyl)-amino]-methyl}-4′-trifluoromethyl-biphenyl-3-yl)-4-methyl-pentanoic acid] | –
– | 620 | CC(C)CC(C(=O)O)c1cc(-c2ccc(C(F)(F)F)cc2)cc(N(C)c2ccc(Cl)cc2)c1 (stereo not drawn) [Example 1, 2-{5-[(4-Chloro-phenyl)-methyl-amino]-4′-trifluoromethyl-biphenyl-3-yl}-4-methyl-pentanoic acid] | –
31 | – | CC(C)CCN(Cc1ccc(C#N)cc1)c1cc(-c2ccc(C(F)(F)F)cc2)cc([C@@H](CC(C)C)C(=O)O)c1 [Compound 48, (R) 2-{5-[(4-Cyano-benzyl)-(3-methyl-butyl)-amino]-4′-trifluoromethyl-biphenyl-3-yl}-4-methyl-pentanoic acid] | –
18 | – | CC(C)CC(C(=O)O)c1cc(NCc2ccc(C(C)(C)C)cc2)cc(-c2ccc(C(F)(F)F)cc2)c1 (stereo not drawn) [Compound 37, 2-[5-(4-tert-Butyl-benzylamino)-4′-trifluoromethyl-biphenyl-3-yl]-4-methyl-pentanoic acid] | –
– | 600 | CC(C)CC(C(=O)O)c1cc(-c2cc(F)cc(C(F)(F)F)c2)cc(N(C)c2cc(C(F)(F)F)cc(C(F)(F)F)c2)c1 (stereo not drawn) [Example 25, 2-[5′-Fluoro-5-(N-[3,5-bis-(trifluoromethyl)phenyl]-N-methylamino)-3′-trifluoromethyl-biphenyl-3-yl]-4-methyl-pentanoic acid] | –
0 | – | CC(C)CC(C(=O)O)c1cc(-c2ccc(C(F)(F)F)cc2)cc(N2CCc3ccccc3C2)c1 (stereo not drawn) [Compound 53, 4-Methyl-2-[-5-(3,4-dihydroisoquinolin-2(1H)-yl)-4′-(trifluoromethyl)biphenyl-3-yl]-pentanoic acid] | –
– | 640 | CC(C)CC(C(=O)O)c1cc(NCc2ccc(F)cc2C(F)(F)F)cc(-c2ccc(C(F)(F)F)cc2)c1 (stereo not drawn) [Compound 51, 2-(5-(4-fluoro-2-(trifluoromethyl)benzylamino)-4′-(trifluoromethyl)biphenyl-3-yl)-4-methylpentanoic acid] | –
16 | – | CCN(c1cc(-c2ccc(C(F)(F)F)cc2)cc(C(CC(C)C)C(=O)O)c1)c1cccc(C(F)(F)F)c1 (stereo not drawn) [Example 13, 2-{5-[Ethyl-(3-trifluoromethyl-phenyl)-amino]-4′-trifluoromethyl-biphenyl-3-yl}-4-methyl-pentanoic acid] | –
– | 220 | CC(C)CC(C(=O)O)c1cc(-c2ccc(C(F)(F)F)cc2)cc(N(C)c2cccc(C(F)(F)F)c2)c1 (stereo not drawn) [Example 2, 4-Methyl-2-{5-[methyl-(3-trifluoromethyl-phenyl)-amino]-4′-trifluoromethyl-biphenyl-3-yl}-pentanoic acid] | –
– | 260 | CC(C)CCN(c1cc(-c2ccc(C(F)(F)F)cc2)cc(C(CC(C)C)C(=O)O)c1)c1cccc(C(F)(F)F)c1 (stereo not drawn) [Example 17, 4-Methyl-2-{5-[(3-methyl-butyl)-(3-trifluoromethyl-phenyl)-amino]-4′-trifluoromethyl-biphenyl-3-yl}-pentanoic acid] | –
23 | – | CC(C)CC(C(=O)O)c1cc(-c2ccc(C(F)(F)F)cc2)cc(N(C)c2ccc(F)cc2C(F)(F)F)c1 (stereo not drawn) [Example 11, 2-{5-[(4-Fluoro-2-trifluoromethyl-phenyl)-methyl-amino]-4′-trifluoromethyl-biphenyl-3-yl}-4-methyl-pentanoic acid] | –
– | 220 | CC(C)CCC(Nc1cc(-c2ccc(C(F)(F)F)cc2)cc(C(CC(C)C)C(=O)O)c1)c1cc(C(F)(F)F)cc(C(F)(F)F)c1 (stereo not drawn) [Compound 30, 2-{5-[1-(3,5-Bis-trifluoromethyl-phenyl)-4-methyl-pentylamino]-4′-trifluoromethyl-biphenyl-3-yl}-4-methyl-pentanoic acid] | –
– | 590 | CC(C)CCN(Cc1ccc(C(F)(F)F)cc1)Cc1cc(CC(=O)O)cc(-c2ccc(C(F)(F)F)cc2)c1 [Compound 58, (5-{[(3-Methyl-butyl)-(4-trifluoromethyl-benzyl)-amino]-methyl}-4′-trifluoromethyl-biphenyl-3-yl)-acetic acid] | –
– | 190 | CC(C)CCN(Cc1cc(F)cc(F)c1)c1cc(-c2ccc(C(F)(F)F)cc2)cc([C@@H](CC(C)C)C(=O)O)c1 [Compound 40, 2-{5-[(3,5-Difluoro-benzyl)-(3-methyl-butyl)-amino]-4′-trifluoromethyl-biphenyl-3-yl}-4-methyl-pentanoic acid] | –
– | – | 2-(5-(2,4-difluorobenzylamino)-4′-(trifluoromethyl)biphenyl-3-yl)-4-methyl pentanoic acid [Compound 52] | inhibition @ 0.3 μM (0.3 μM): 0% inhi- bition @ 0.3 μM
– | 130 | CC(C)CCN(Cc1ccc(F)cc1)Cc1cc(-c2ccc(C(F)(F)F)cc2)cc(C(CC(C)C)C(=O)O)c1 (stereo not drawn) [Compound 62, 2-(5-{[(4-Fluoro-benzyl)-(3-methyl-butyl)-amino]-methyl}-4′-trifluoromethyl-biphenyl-3-yl)-4-methyl-pentanoic acid] | –
– | – | CC(C)CC(C(=O)O)c1cc(-c2ccc(C(F)(F)F)cc2)cc(N(C)c2ccc(C(C)C)cc2)c1 (stereo not drawn) [Example 7, 2-{5-[(4-Isopropyl-phenyl)-methyl-amino]-4′-trifluoromethyl-biphenyl-3-yl}-4-methyl-pentanoic acid] | % printed in the EC50 column, no concentration given: 8%
– | 450 | CC(C)CC(C(=O)O)c1cc(-c2ccc(C(F)(F)F)cc2)cc(N(C)c2cc(F)cc(F)c2)c1 (stereo not drawn) [Example 3, 2-{5-[(3,5-Difluoro-phenyl)-methyl-amino]-4′-trifluoromethyl-biphenyl-3-yl}-4-methyl-pentanoic acid] | –
14 | – | CCN(c1ccc(Cl)cc1)c1cc(-c2ccc(C(F)(F)F)cc2)cc(C(CC(C)C)C(=O)O)c1 (stereo not drawn) [Example 14, 2-{5-[(4-Chloro-phenyl)-ethyl-amino]-4′-trifluoromethyl-biphenyl-3-yl}-4-methyl-pentanoic acid] | –
– | – | CC(C)CC(C(=O)O)c1cc(-c2ccc(C(F)(F)F)cc2)cc(N(C)c2ccc(C#N)cc2)c1 (stereo not drawn) [Example 8, 2-{5-[(4-Cyano-phenyl)-methyl-amino]-4′-trifluoromethyl-biphenyl-3-yl}-4-methyl-pentanoic acid] | % printed in the EC50 column, no concentration given: −0%

Source: patent US8247610B2, “Amine linked modulators of γ-secretase” (Janssen Pharmaceutica N.V., priority 2007, dated 2012)
